Consider one molecule from patent publication US20190322643A1 (Georgia State University Research Foundation, Inc., priority 2016, published 2019).

For one assay, the system named is MCF-7. Nature of the assay: Cytotoxicity / anti-proliferation assay (CCK-8), MCF-7. The conditions noted are these: Homo sapiens, MCF7; 72 h, CCK-8 kit. The assay is classed as cell-based. As for the experimental part:
(§1) Then the cells were exposed to the different inhibitors with various concentrations for 72 h. […] EC50s were calculated using GraphPad Prizm statistical package with sigmoidal variable slope dose response curve fit.
(§2) Cell anti-proliferation assays were performed to determine the toxicity of these inhibitors. […] These compounds were further evaluated against the control cell line HEK293 to test their toxicity with a non-cancerous cell line.
On the technique in general: Tetrazolium assays rely on reduction of a dye to a coloured formazan, in cell work by metabolically active cells.

Assay [1] has as its system HDAC. Nature of the assay: Cell based homogenous HDAC assay, Hela. The conditions noted are these: read-out: IC50-HDAC Hela; Hela cells, mean ± SD of triplicate.
Experimental: (§3) After 24 h, 9 μl inhibitors with different concentration were added to the HeLa cells and incubation was continued for 3 h under cell culture conditions. After this treatment period, 10 μl of a 2 mM stock solution of the substrate Boc-K(Ac)-AMC was added into the 96 well plates with Hela cells and inhibitors. […] A549 and K562 cell lines used the same method, respectively. IC50s were calculated using GraphPad Prizm statistical package with sigmoidal variable slope dose response curve fit.
(§4) Boc-K(Ac)-AMC was used as a cell-permeable HDAC substrate, as after deacetylation it is cleaved by trypsin to release the florescent 7-amino-4-methylcoumarin (AMC).
The next assay concerns the target T1, G9a (Homo sapiens, UniProt Q96KQ7).
T1 construct: endogenous in cells; host or cells: MDA-MB-231
T1 sequence (Q96KQ7 1-1210): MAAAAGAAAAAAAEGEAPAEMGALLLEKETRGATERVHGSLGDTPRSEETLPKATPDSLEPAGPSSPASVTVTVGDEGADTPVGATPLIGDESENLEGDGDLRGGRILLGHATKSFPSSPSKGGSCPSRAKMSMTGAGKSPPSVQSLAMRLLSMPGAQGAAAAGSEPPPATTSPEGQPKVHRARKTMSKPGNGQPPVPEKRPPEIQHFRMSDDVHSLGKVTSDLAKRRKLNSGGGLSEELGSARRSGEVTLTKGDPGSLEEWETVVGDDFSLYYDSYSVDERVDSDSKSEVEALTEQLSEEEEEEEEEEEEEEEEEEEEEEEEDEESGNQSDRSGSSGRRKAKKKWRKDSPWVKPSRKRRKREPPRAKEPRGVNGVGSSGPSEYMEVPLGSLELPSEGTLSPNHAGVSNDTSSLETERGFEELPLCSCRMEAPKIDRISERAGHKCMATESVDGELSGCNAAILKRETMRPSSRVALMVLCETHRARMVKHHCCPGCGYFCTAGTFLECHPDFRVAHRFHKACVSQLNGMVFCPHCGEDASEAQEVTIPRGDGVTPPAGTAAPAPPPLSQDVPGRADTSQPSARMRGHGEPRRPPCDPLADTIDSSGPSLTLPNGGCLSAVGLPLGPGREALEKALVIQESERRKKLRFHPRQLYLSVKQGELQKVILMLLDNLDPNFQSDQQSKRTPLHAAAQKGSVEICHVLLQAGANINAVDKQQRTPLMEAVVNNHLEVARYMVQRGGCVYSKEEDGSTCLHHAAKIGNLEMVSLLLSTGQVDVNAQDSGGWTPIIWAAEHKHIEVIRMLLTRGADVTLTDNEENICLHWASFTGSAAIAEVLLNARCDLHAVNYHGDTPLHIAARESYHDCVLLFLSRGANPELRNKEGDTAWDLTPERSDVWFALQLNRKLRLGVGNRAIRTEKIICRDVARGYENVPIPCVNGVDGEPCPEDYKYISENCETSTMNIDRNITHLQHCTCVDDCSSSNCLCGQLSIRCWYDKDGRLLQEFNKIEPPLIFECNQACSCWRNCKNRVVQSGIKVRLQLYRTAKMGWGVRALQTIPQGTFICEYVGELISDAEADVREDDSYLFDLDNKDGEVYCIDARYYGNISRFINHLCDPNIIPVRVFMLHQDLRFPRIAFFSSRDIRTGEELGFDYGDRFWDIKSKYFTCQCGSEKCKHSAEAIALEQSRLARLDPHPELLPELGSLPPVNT
Nature of the assay: H3K9Me2 cell immunofluorescence in-cell Western (ICW) assay. The format is cell-based. To be noted: MDA-MB-231 cell line, 48 h.

The test system of assay [2] is HDAC. The assay can be described thus: Cell based homogenous HDAC assay, K562. The conditions noted are these: read-out: IC50-HDAC K562; K562 cells, mean ± SD of triplicate.
Experimental: as §3, §4
The subject of another assay is A549. Nature of the assay: Cytotoxicity / anti-proliferation assay (CCK-8), A549. The assay is classed as cell-based. To be noted: Homo sapiens, 72 h, CCK-8 kit. As for the experimental part: as §1, §2
A further assay relates to MDA-MB-231. The assay can be described thus: Cytotoxicity / anti-proliferation assay (CCK-8), MDA-MB-231. The format is cell-based. The conditions noted are these: Homo sapiens, 72 h, CCK-8 kit, read-out: EC50 MDA-MB-231. As for the experimental part: A549, MDA-MB-231, HCT-8, MCF-7, and HEK293 cells were seeded at 8000-10000 cells (100 μl) in white 96-well plates and pre-incubate the plate for 24 h under standard cell culture conditions, respectively. Then the cells were exposed to the different inhibitors with various concentrations for 72 h. Finally, 10 μl of CCK-8 kit solution was added to each well and incubated for 3-4 hours under standard cell culture conditions, and the 96 well plates were measured the absorbance at 450 nm using Perkin-Elmer Wallac Victor ^3V 1420 multi label plate reader (Perkin-Elmer, Wellesley, USA). EC50s were calculated using GraphPad Prizm statistical package with sigmoidal variable slope dose response curve fit.
Cell anti-proliferation assays were performed to determine the toxicity of these inhibitors. Several cell lines (MDA-MB-231, MCF-7, A549 and HCT-8) were incubated and then treated with varying concentrations of the inhibitors for 72 h, respectively. […] These compounds were further evaluated against the control cell line HEK293 to test their toxicity with a non-cancerous cell line.

In assay [3] the test system is HDAC. Nature of the assay: Cell based homogenous HDAC assay, A549. The conditions noted are these: read-out: IC50-HDAC A549; A549 cells, mean ± SD of triplicate.
Experimental: as §3, §4

Each structure is given as a SMILES string. Where only a bound is given, the exact number is not on record here.

In the case of `CN1CCCN(c2nc(NC3CCN(Cc4ccccc4)CC3)c3ccc(OCCCCCCC(=O)NO)cc3n2)CC1` [Compound 30], the EC50 with MCF-7 is more than 100 µM; with A549, more than 100 µM; in the assay with MDA-MB-231 it was 24 ± 3.64 µM. The 50% inhibitory concentration (IC50) in the assay on HDAC [1], against G9a, in the assay with HDAC [2] and with HDAC [3] was more than 100 µM in each case.

A word on the EC50: it is the concentration at which the effect is half-maximal. One may read the IC50 as the midpoint of a concentration-inhibition curve.
